The values below come from patent US5696108A, “Protein kinase C inhibitors” (Eli Lilly and Company, priority 1996, dated 1997).

For data set [1] the following is noted: from CN1C(=O)C(c2c[nH]c3ccccc23)=C(c2cn(CCCOC(CCI)CO[Si](c3ccccc3)(c3ccccc3)C(C)(C)C)c3ccccc23)C1=O; amine bond; cesium carbonate; DMF; 5.85 mM; 83.0 h.
Another data set deals with protein kinase C. Particulars: literature; cited from earlier work.
In data set [2] the target is T1, cAMP-dependent kinase catalytic subunit (Bos taurus, UniProt P00517).
T1 construct: purchased Sigma, St. Louis, Mo; host or cells: bovine heart
As to the kind of experiment: cAMP-Dependent protein Kinase Catalytic Subunit Assay. In kind it is biochemical, bovine. As to conditions: Table 1. On the procedure:
cAMP-Dependent protein Kinase Catalytic Subunit Assay (PEA) The Assay components are in a total volume of 250 μL: 20 mM HEPES (Sigma, St. Louis, Mo.) buffer pH 7.5, 200 μg/mL histone type HL (Worthington), 10 mM magnesium chloride (Sigma, St. […] The reaction is initiated by addition of bovine heart cAMP-dependent kinase catalytic subunit (Sigma, St. Louis, Mo.), incubated to 30° C. for 10 minutes and stopped by adding 0.5 mL ice cold Trichloroacetic acid (Amresco) followed by 100 μL of 1 mg/mL bovine serum albumin (Sigma). The precipitate is collected by vacuum filtrated on glass fiber filters employing a TOMTEC™ and quantified by counting in a beta scintillation counter. This assay is done identical to the protein kinase C (PKC) enzyme assay except that no phospholipids or diacylglycerol are employed in the assay and the histone substrate is specific for the cAMP-dependent catalytic subunit enzyme.

For data set [3], the target named is calcium calmodulin dependent protein kinase. The data set is described as follows: Calcium Calmodulin Dependent Protein Kinase Assay (CAM). In kind it is biochemical, rat. Particulars: Table 1. On the procedure:
Calcium Calmodulin Dependent Protein Kinase Assay (CAM)
The reaction is initiated by the addition of calcium calmodulin dependent protein kinase (isolated from rat brain homogenate), incubated at room temperature for 10 minutes and stopped by adding 0.5 mL ice cold trichloroacetic acid (Amresco) followed by 100 μL of 1 mg/mL bovine serum albumin (Sigma, St. Louis, Mo.). The precipitate is collected by vacuum filtration on glass fiber filters and quantified by counting in a beta scintillation counter.
25 μL calmodulin (250 μg/mL)
10 μL DMSO or DMSO/inhibitor

The target of the next data set is T2, casein protein kinase II (Rattus norvegicus, UniProt P19139).
T2 construct: isolated from rat brain homogenate; from tissue; host or cells: rat brain homogenate
T2 sequence (P19139 whole entry): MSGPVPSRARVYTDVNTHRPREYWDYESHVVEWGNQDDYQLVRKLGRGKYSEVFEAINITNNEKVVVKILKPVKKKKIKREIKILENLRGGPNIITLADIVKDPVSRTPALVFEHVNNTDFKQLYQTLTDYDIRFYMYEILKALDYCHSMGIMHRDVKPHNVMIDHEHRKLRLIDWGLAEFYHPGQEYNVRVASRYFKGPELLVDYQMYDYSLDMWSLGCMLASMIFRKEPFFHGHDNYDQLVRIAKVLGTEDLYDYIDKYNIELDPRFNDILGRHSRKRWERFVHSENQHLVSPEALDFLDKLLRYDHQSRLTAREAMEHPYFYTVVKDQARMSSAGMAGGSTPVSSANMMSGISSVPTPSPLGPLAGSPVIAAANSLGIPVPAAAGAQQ
T2 sequence (P67874 2-215 partner limits assumed): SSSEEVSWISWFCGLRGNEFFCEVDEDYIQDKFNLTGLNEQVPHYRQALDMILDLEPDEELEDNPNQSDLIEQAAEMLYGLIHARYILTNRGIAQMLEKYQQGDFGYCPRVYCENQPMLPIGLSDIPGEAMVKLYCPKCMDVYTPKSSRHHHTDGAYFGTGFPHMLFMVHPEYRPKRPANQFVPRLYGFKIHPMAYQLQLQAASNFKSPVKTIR
The data set is described as follows: Casein Protein Kinase II Assay (CK-II). The data set is classed as biochemical. Particulars: Table 1. On the procedure: Casein Protein Kinase II Assay (CK-II)
The Casein Protein Kinase II Assay is described in Neurochem. […] The assay components are in a total volume of 250 μL: 20 mM Tris-HCl, pH 7.5, 5 mM sodium fluoride, 50 mg/mL Casein (Sigma, St. Louis, Mo.), 10 mM magnesium chloride (Sigma, St. Louis, Mo.), 10 μL DMSO or DMSO/inhibitor and 30 μm (gamma-32P) ATP (DuPont). Initiation of the reaction is performed by addition of casein protein kinase II (isolated from rat brain homogenate), incubated at room temperature for 10 minutes and stopped by the addition of 0.5 mL ice cold Trichloroacetic acid (Amresco) followed by 100 μL of 1 mg/mL bovine serum albumin (Sigma, St. Louis, Mo.). The precipitate is collected by vacuum filtration on glass fiber filters and quantified by counting in a beta scintillation counter.
Assay components in order of addition
10 μL or DMSO or DMSO/inhibitor
25 μL of AT32P in 300 μM magnesium chloride
40 μL of enzyme (undiluted)
Buffer prepared as follows:
(Final volume=3.5 mL: amount of 20 assays)

In a further data set the target is PKC gamma (Homo sapiens, UniProt P05129). The data set is described as follows: PKC Enzyme Assay, gamma isozyme. The data set is classed as biochemical. As to conditions: Table 2; read-out: Isozymes ED50 γ. As to the method: (§1) PKC enzymes=alpha, beta I, beta II, gamma, delta, epsilon, eta and zeta.
(§2) Assay components in a total volume of 250 μL are as follows:
(§3) For all the enzymes either histone type HL (Worthington) or myelin basic protein is used as substrate. The assay is started by addition of protein kinase C enzyme incubated at 30° C. for 10 minutes and stopped by adding 0.5 mL of cold trichloroacetic acid (Amresco) followed by 100 μL of 1 mg/mL bovine serum albumin (Sigma, St. Louis, Mo.). The precipitate is collected by vacuum filtration on glass fiber filters employing a TOMTEC™ filtration system and quantified by counting in a beta scintillation counter.

A further data set has as its target PKC eta (Homo sapiens, UniProt P24723). The data set is described as follows: PKC Enzyme Assay, eta isozyme. In kind it is biochemical. Particulars: Table 2; read-out: Isozymes ED50 eta. On the procedure:
as §1, §2, §3

The next data set addresses PKC-α (Homo sapiens, UniProt P17252). The data set is described as follows: PKC Enzyme Assay, alpha isozyme. The data set is classed as biochemical. As to conditions: Table 1. As to the method:
as §1, §2, §3

The target of the next data set is PKC-β1 (Homo sapiens, UniProt P05771). As to the kind of experiment: PKC Enzyme Assay, beta-1 isozyme. In kind it is biochemical. Particulars: Table 1. As to the method:
as §1, §2, §3

Another data set addresses PKC-β2 (Homo sapiens, UniProt P05771). As to the kind of experiment: PKC Enzyme Assay, beta-2 isozyme. As to conditions: Table 1. The data set is classed as biochemical. On the procedure:
as §1, §2, §3

For a further data set, the target named is T3, src (Homo sapiens, UniProt P12931).
T3 construct: purchased Onogene Science, Inc. PK02 and PK03
T3 sequence (P12931 whole entry, species assumed): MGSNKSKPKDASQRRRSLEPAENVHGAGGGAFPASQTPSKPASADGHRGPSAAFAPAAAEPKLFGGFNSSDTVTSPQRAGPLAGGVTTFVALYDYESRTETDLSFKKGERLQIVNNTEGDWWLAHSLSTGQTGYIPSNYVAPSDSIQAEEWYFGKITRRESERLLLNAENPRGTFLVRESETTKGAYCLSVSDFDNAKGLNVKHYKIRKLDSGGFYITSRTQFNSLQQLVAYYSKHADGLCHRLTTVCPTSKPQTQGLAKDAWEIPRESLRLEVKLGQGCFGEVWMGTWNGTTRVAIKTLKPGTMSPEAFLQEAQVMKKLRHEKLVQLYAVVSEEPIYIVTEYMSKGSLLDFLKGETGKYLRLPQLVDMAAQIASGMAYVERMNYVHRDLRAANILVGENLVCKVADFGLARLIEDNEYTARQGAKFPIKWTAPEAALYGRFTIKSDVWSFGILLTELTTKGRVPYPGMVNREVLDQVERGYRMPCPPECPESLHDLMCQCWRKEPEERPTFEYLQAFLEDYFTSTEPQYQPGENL
The data set is described as follows: Protein Tyrosine Kinase Assay (src). In kind it is biochemical. As to conditions: Table 1. As to the method: Protein Tyrosine Kinase Assay (src)
The Assay components are the following:
4 μL DMSO or DMSO/inhibitor

Structures are written as SMILES. Entries after “also recorded” stand apart in the source; their conditions may differ. Counter-ions that a name gives are not always drawn. Bounds are passed on as bounds.

Sequence of PKC-β1 (P05771 whole entry): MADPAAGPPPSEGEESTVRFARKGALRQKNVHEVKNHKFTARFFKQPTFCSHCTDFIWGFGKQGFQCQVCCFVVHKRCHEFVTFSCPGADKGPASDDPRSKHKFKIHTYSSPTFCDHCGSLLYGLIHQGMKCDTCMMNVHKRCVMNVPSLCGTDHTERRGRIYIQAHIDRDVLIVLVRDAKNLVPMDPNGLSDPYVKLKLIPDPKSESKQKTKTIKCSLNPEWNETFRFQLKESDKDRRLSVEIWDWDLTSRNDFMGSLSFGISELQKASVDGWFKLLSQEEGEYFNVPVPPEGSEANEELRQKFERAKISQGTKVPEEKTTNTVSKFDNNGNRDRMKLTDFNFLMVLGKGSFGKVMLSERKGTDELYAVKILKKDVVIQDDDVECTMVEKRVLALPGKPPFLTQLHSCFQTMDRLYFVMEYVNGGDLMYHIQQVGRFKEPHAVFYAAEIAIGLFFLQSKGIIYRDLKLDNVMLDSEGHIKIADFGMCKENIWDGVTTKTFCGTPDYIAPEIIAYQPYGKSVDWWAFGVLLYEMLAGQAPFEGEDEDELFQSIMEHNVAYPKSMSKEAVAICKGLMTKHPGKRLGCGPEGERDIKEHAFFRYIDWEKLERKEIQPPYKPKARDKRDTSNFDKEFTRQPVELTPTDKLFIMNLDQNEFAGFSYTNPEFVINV
Sequence of PKC-β2 (P05771 1-673 isoform P05771-2): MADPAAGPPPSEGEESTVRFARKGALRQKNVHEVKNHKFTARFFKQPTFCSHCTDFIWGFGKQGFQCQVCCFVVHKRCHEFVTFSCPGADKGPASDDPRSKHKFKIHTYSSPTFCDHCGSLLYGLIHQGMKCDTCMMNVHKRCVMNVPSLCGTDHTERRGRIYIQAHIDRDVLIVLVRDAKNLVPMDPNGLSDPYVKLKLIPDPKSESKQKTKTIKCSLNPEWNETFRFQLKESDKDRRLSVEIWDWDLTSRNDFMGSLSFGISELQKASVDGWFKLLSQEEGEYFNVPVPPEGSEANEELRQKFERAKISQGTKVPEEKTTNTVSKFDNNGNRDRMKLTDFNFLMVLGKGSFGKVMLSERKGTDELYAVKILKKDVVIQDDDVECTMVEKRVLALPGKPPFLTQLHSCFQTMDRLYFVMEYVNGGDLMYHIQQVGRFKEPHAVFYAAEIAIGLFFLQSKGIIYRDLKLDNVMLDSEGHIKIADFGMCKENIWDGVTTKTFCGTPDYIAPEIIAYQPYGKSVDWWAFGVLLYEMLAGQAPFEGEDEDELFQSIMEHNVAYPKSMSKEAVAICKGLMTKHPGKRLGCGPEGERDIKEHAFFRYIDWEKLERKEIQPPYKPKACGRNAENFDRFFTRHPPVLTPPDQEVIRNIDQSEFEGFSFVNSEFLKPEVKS
Sequence of PKC eta (P24723 whole entry): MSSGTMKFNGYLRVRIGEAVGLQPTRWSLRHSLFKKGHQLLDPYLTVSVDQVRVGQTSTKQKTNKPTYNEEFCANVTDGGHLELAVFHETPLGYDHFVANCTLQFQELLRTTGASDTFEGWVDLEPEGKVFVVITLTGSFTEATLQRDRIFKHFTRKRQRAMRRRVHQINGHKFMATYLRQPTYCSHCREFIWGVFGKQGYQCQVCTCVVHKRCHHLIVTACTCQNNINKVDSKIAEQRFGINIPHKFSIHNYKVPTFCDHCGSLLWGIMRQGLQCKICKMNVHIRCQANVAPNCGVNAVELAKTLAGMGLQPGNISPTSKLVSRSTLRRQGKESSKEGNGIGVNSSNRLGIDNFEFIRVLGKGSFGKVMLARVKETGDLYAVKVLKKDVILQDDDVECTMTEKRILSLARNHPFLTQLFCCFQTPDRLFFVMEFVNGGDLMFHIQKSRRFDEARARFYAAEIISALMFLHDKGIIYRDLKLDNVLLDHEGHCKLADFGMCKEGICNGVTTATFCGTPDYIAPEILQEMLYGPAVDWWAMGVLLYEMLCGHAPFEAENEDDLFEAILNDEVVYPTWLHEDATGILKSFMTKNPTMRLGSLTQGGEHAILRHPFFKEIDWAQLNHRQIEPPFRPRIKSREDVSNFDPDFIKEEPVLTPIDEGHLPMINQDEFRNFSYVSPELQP

Regarding `CN1C(=O)C2=C(C1=O)c1cn(c3ccccc13)CCC(CO[Si](c1ccccc1)(c1ccccc1)C(C)(C)C)OCCCn1cc2c2ccccc21` (stereo not drawn), the ring closure, yield of all isomers in [1] came to 97%.
As for `CN(C)CCCn1cc(C2=C(c3c[nH]c4ccccc34)C(=O)NC2=O)c2ccccc21` [3-[1-(3-dimethylaminopropyl)-indol-3-yl]-4-(1H-indol-3-yl)-1H-pyrrole-2,5-dione], the isozyme selectivity entry in the data set on protein kinase C was “slight selectivity for the calcium dependent isozymes; also recorded: no difference, or possibly slight selectivity, for alpha over beta-1 and beta-2 isozymes”.
In the case of `CN(C)CC1CCn2cc(c3ccccc32)C2=C(C(=O)NC2=O)c2cn(c3ccccc23)CCO1` (stereo not drawn) [Example 5], the IC50 in data set [2] is more than 100 µM; in data set [3], 4 µM; against casein protein kinase II it was more than 100 µM; on PKC gamma, 0.23 µM; at PKC eta it was 0.035 µM.
With `CN(C)CC1CCn2cc(c3ccccc32)C2=C(C(=O)NC2=O)c2cn(c3ccccc23)CCCO1` (stereo not drawn) [Example 11], the IC50 against PKC-α was 5 µM; at PKC-β1 it was 0.3 µM; on PKC-β2, 0.1 µM; in data set [2], more than 100 µM; in data set [3], 20 µM; on casein protein kinase II, more than 100 µM. At src, this molecule yielded an IC50 of more than 100 µM.
`CC(=O)NC[C@H]1CCn2cc(c3ccccc32)C2=C(C(=O)NC2=O)c2cn(c3ccccc23)CCO1` [Example 19r]: the IC50 at PKC-α was 0.48 µM; at PKC-β1 it was 0.032 µM; at PKC-β2 it was 0.03 µM; in [2], more than 100 µM; in data set [3], 2.2 µM; at casein protein kinase II, more than 100 µM. This molecule yielded an IC50 on src of more than 100 µM.
Take `O=C1NC(=O)C2=C1c1cn(c3ccccc13)CCCC(CO)CCn1cc2c2ccccc21` (stereo not drawn) [Example 31, 3,4-[(N,N'-1,1'-(3"-(hydroxy)methylene)hexane)-bis-(3,3'-indolyl)]-1H-pyrrole-2,5-dione]: the IC50 against PKC-α was 0.3 µM; against PKC-β1, 0.02 µM; against PKC-β2, 0.03 µM; in data set [2] it was more than 100 µM; in data set [3], 0.47 µM; against casein protein kinase II, more than 100 µM. This molecule also yielded an IC50 against src of more than 100 µM.
For the molecule `NCC1CCCn2cc(c3ccccc32)C2=C(C(=O)NC2=O)c2cn(c3ccccc23)CC1` (stereo not drawn) [Example 32, 3,4-[(N,N'-1,1'-(3"-aminomethylene)-hexane)-bis-(3,3'-indolyl)]-1H-pyrrole-2,5-dione], the IC50 at PKC-α was 0.1 µM; against PKC-β1, 0.01 µM; at PKC-β2, 0.008 µM; in data set [2], more than 100 µM; in data set [3], 0.9 µM; against casein protein kinase II, more than 100 µM. Moreover, the IC50 against src is 72 µM.
Take `O=C1NC(=O)C2=C1c1cn(c3ccccc13)CCC[C@@H](CN1CCCC1)CCn1cc2c2ccccc21` [Example 36r, (R)-3,4-[(N,N'-1,1'-(3"-(N-pyrrolidino)methylene)-hexane)-bis-(3,3"-indolyl)]-1H-pyrrole-2,5-dione hydrochloride salt]: the IC50 at PKC-α is 0.45 µM; at PKC-β1 it was 0.005 µM; at PKC-β2 it was 0.014 µM; in data set [2] it was more than 100 µM; in [3], 7.1 µM; against casein protein kinase II, more than 100 µM. On src, this molecule came in with an IC50 of 61 µM.
On to `COCC1CCCn2cc(c3ccccc32)C2=C(C(=O)NC2=O)c2cn(c3ccccc23)CC1` (stereo not drawn) [Example 37, 3,4-[(N,N'-1,1'-(3"-methoxymethylene)-hexane)-bis-(3,3'-indolyl)]-1H-pyrrole-2,5-dione], for which the IC50 on PKC-α is 0.7 µM; on PKC-β1, 0.05 µM; at PKC-β2 it was 0.04 µM; in [2] it was more than 100 µM; in data set [3], 5 µM; on casein protein kinase II, more than 100 µM. At src, this molecule showed an IC50 of more than 100 µM.
For `CC(=O)OCC1CCCn2cc(c3ccccc32)C2=C(C(=O)NC2=O)c2cn(c3ccccc23)CC1` (stereo not drawn) [Example 38, 3,4-[(N,N'-1,1'-(3"-(acetoxy)methylene)-hexane)-bis-(3,3'-indolyl)]-1H-pyrrole-2,5-dione], the IC50 was 4 µM at PKC-α; 0.2 µM at PKC-β1; 0.1 µM at PKC-β2; more than 100 µM in data set [2]; 9 µM in [3]; more than 100 µM against casein protein kinase II. The same molecule returned an IC50 against src of more than 100 µM.
`O=C(NCC1CCCn2cc(c3ccccc32)C2=C(C(=O)NC2=O)c2cn(c3ccccc23)CC1)OCc1ccccc1` (stereo not drawn) [Example 39]: the IC50 against PKC-α was 31 µM; at PKC-β1, 0.4 µM; against PKC-β2, 0.3 µM; in data set [2] it was more than 100 µM; in data set [3] it was more than 100 µM; on casein protein kinase II, more than 100 µM. In addition, the IC50 against src is more than 100 µM.
Take `O=C1NC(=O)C2=C1c1cn(c3ccccc13)CCCCCCCn1cc2c2ccccc21` [Example 42]: the IC50 at PKC-α was more than 100 µM; against PKC-β1, 0.5 µM; against PKC-β2 it was 0.6 µM; in data set [2], more than 100 µM; in data set [3], more than 100 µM; against casein protein kinase II, more than 100 µM. At src, the IC50 is more than 100 µM.
For `NC1CCCn2cc(c3ccccc32)C2=C(C(=O)NC2=O)c2cn(c3ccccc23)CCC1` [Example 45], the IC50 is 3 µM against PKC-α; 0.1 µM against PKC-β1; 0.1 µM against PKC-β2; more than 100 µM in data set [2]; 39 µM in data set [3]; more than 100 µM against casein protein kinase II. Moreover, the IC50 on src was more than 125 µM.
As to `CC(=O)NC1CCCn2cc(c3ccccc32)C2=C(C(=O)NC2=O)c2cn(c3ccccc23)CCC1` [Example 46], the IC50 against PKC-α was 3 µM; at PKC-β1 it was 0.04 µM; on PKC-β2 it was 0.04 µM; in data set [2], more than 100 µM; in data set [3] it was 63 µM; at casein protein kinase II, more than 100 µM. The same molecule displayed an IC50 against src of more than 100 µM.
In the case of `O=C1NC(=O)C2=C1c1cn(c3ccccc13)CCCC(NCc1ccccc1)CCCn1cc2c2ccccc21` [Example 47], the IC50 at PKC-α was 2 µM; at PKC-β1, 0.07 µM; against PKC-β2 it was 0.06 µM; in data set [2], more than 100 µM; in data set [3] it was 70 µM; against casein protein kinase II, more than 100 µM. At src, this molecule came in with an IC50 of more than 125 µM.
In the case of `O=C1NC(=O)C2=C1c1cn(c3ccccc13)CCCC1(CCCn3cc2c2ccccc23)OCCO1` [Example 48], the IC50 against PKC-α is more than 100 µM; against PKC-β1, 0.5 µM; on PKC-β2, 0.3 µM; in data set [2], more than 100 µM; in [3], more than 100 µM; against casein protein kinase II, more than 100 µM. Moreover, the IC50 at src was more than 100 µM.
In the case of `O=C1CCCn2cc(c3ccccc32)C2=C(C(=O)NC2=O)c2cn(c3ccccc23)CCC1` [Example 49], the IC50 on PKC-α is 10 µM; on PKC-β1 it was 0.6 µM; at PKC-β2, 0.4 µM; in data set [2], more than 100 µM; in data set [3] it was more than 100 µM; at casein protein kinase II, more than 100 µM. Moreover, at src, the IC50 is more than 100 µM.
